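48-hour exposure; five concentrations; linearly interpolated endpoints. The concentration for full growth arrest is given as TGI.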

Experiment in all cases: inhibition of tumour cell growth, NCI panel, 48 h
In experiment [1] the test system is KM12 colon.
For experiment [2], the system named is M14 melanoma.
The subject of experiment [3] is NCI-H23 lung.
Experiment [4] relates to OVCAR-4 ovarian.
Experiment [5] relates to SNB-19 CNS.
Experiment [6] relates to SNB-75 CNS.
In experiment [7] the test system is SW-620 colon.
The subject of experiment [8] is TK-10 renal.
The test system of experiment [9] is K-562 leukemia.

On to `O=C(CC1Sc2ccccc2NC1=O)Nc1ccc([N+](=O)[O-])cc1[N+](=O)[O-]` (centres undefined), for which the TGI in experiment [1] is 59.5 µM; in [2] it was 31.2 µM; in experiment [3], 27.2 µM; in experiment [4], 52.6 µM; in experiment [5], 40.7 µM; in experiment [6] it was 38.7 µM. For the same compound, the TGI in experiment [7] was 32.4 µM; in experiment [8], over 100 µM.
Consider `CC(C)(C)NC(=O)C12C3C4C1C1C2C3C41I` (centres undefined), for which the TGI in experiment [9], in experiment [1], in [3], in experiment [5], in experiment [7] and in experiment [8] was over 100 µM in each case.
`CC(=O)OCC1OC(n2c(-c3ccc(N)cc3)cc(-c3ccco3)c(C#N)c2=O)C(OC(C)=O)C(OC(C)=O)C1OC(C)=O` (centres undefined): the TGI in [1], in [2], in [3], in experiment [4], in experiment [5] and in experiment [6] was over 50 µM in each case. Besides, the TGI in [7] and in experiment [8] was over 50 µM throughout.
For `N#CC1(Cc2ccccc2Cl)c2ccccc2C=CN1C(=O)c1ccccc1` (centres undefined), the TGI in experiment [9], in [1], in [2], in [3], in experiment [5] and in [6] was over 100 µM each time. Moreover, the TGI in experiment [7] and in experiment [8] was over 100 µM in each case.
For `CCOc1cccc2cccnc12`, the TGI in [9], in [1], in experiment [2], in [3], in [4] and in experiment [5] was over 100 µM each time. For the same compound, the TGI in experiment [6], in experiment [7] and in [8] was over 100 µM in each case.
For `C[N+](C)(C)CC(=O)NC(=O)N/N=C\C(CC#N)CN(Cc1ccccc1)Cc1ccccc1` (centres undefined), the TGI in [9], in experiment [1], in [2], in [3], in [4] and in experiment [5] was over 100 µM throughout. In addition, the TGI in [6], in [7] and in [8] was over 100 µM each time.
As for `c1cc(C2O[C@H]3CCCN3[C@@H]2c2ccncc2)ccn1` (some centres undefined), the TGI in [9], in [1], in experiment [2], in [3], in [4] and in experiment [5] was over 100 µM throughout. The TGI in [6], in [7] and in [8] was over 100 µM each time.
For `COc1cc(OC)c(Oc2cccc(OC)c2OC)c(OC)c1`, the TGI in experiment [9], in experiment [1], in experiment [2], in experiment [3], in experiment [4] and in experiment [5] was over 100 µM each time. Also, the TGI in experiment [6], in experiment [7] and in experiment [8] was over 100 µM in each case.
For the compound `Cc1cc(C)c(-c2noc(-c3ccc(Cl)cc3)c2C2=NCCN2)c(C)c1`, the TGI in experiment [9] was 37.4 µM; in experiment [1], 54 µM; in experiment [2] it was 27 µM; in experiment [3] it was 36.2 µM; in experiment [4] it was over 100 µM; in experiment [5], over 100 µM. Moreover, the TGI in [6] is 37.3 µM; in experiment [7], over 100 µM.
In the case of `O=C(Nc1ccc(Cl)cc1Cl)c1c/c(=N\O)c2ccc(O)cc2o1`, the TGI in experiment [9], in [1], in experiment [2], in [3], in experiment [4] and in [5] was over 100 µM throughout. For the same compound, the TGI in experiment [6], in experiment [7] and in experiment [8] was over 100 µM in each case.
As for `O=C(O)C(=O)/C=C\c1ccc(Cl)cc1`, the TGI in experiment [9], in [1], in experiment [2], in experiment [3], in experiment [4] and in experiment [5] was over 100 µM in each case. For the same compound, the TGI in experiment [6] is over 100 µM; in experiment [7], 27 µM; in experiment [8], over 100 µM.
Turning to `NNC(=S)N/N=C(\c1nc2ccc(Cl)cc2[nH]c1=O)C(O)c1ccc(Cl)cc1Cl` (centres undefined), the TGI in [9], in [1], in [2], in [3], in experiment [4] and in [5] was over 100 µM in each case. Also, the TGI in [6], in experiment [7] and in experiment [8] was over 100 µM in each case.
For the compound `COc1ccc2c(c1)C(CCN)C(=O)N2` (centres undefined), the TGI in [9], in experiment [1], in experiment [2], in experiment [3], in [4] and in experiment [6] was over 100 µM throughout. Moreover, the TGI in [7] and in experiment [8] was over 100 µM each time.
In the case of `CCOC(=O)C(=C=Cc1cccs1)C(=O)c1ccccc1`, the TGI in experiment [9] is over 100 µM; in [1] it was 24.7 µM; in [2], 28.2 µM; in experiment [3] it was 28.8 µM; in experiment [4] it was 39.4 µM; in [6], 29.8 µM. Moreover, the TGI in experiment [7] amounted to 31.9 µM; in experiment [8], 28.5 µM.
For `CC(C)CCC[C@@H](C)C1CCC2[C@@H]3CC=C4C[C@@H](OC(=O)CCC(=O)NCC[N+](C)(C)CCCS(=O)(=O)[O-])CC[C@]4(C)C3CC[C@@]21C` (some centres undefined), the TGI in experiment [9] was determined as 37.6 µM; in experiment [1], 37.9 µM; in experiment [2], 36 µM; in [4], 34.5 µM; in experiment [5], 44.7 µM; in experiment [6] it was 44.9 µM. The compound also yielded a TGI in experiment [7] of 33.8 µM.
